Data reported in US4496578A, “Antihypertensive sulfur-containing compounds” (Santen Pharmaceutical Co., Ltd., priority 1978, dated 1985).

Legend:
[1] = test system: angiotensin I-converting enzyme; experiment: Percent inhibition of pressor response to angiotensin I in unanesthetized rats after oral administration (ACE inhibition in vivo); parameters: species or system Male Wistar strain rats; settings: mg/kg: 2 1.8, 2A 1.3, 2B 1.8, 22 1.5, 22A 1.0, 22B 1.4, 32 1.7, 32C 1.3, 64 1.9
Protocol: As recently it has been clear that the compounds inhibiting angiotensin I-converting enzyme may be the curative potency against both renal hypertension and essential hypertension, the compounds of this invention are evaluated as antihypertensive agents by the following method.
Male Wistar strain rats weighing 200-300 g were used. Under ether anesthesia, polyethylene cannulae are inserted into carotid artery and jugular vein. The cannula to carotid artery is connected to an electric transducer, while the cannula to jugular vein is connected to an apparatus for continuous infusion. After the complete recovery from anesthesia, angiotensin I is infused intravenously in a dose of 300 ng/kg by the apparatus for continuous infusion, and the pressor response is recorded by polygraph (Nihon Koden, RM-150). The compounds of this invention suspended in 0.5% tragacanth solution are addministered orally in a dose of 0.3 ml per 100 g of body weight, and the pressor response to angiotensin I infused intravenously is measured with time.

[2] = test system: male ddy-std. strain mice; experiment: Acute toxicity test in mice; assay type: in vivo; settings: intraperitoneal, suspended in 0.5% tragacanth
Protocol: The male ddy-std. strain mice (4 weeks of age, weighing 19-21 g) were placed in a breeding room of constant temperature and humidity (23±1° C., 55±5%) and fed freely pellet diet (CE-2, Clea Japan, Inc.) and water ad. libitum for a week. The mice showing the normal growth were selected for the experiment.
Test compound is suspended in 0.5% tragacanth solution, and administered intraperitoneally in a dose of 0.5 ml per 20 g B.W.

CC(=O)Oc1ccccc1C1SC[C@@H](C(=O)O)N1C(=O)CCSC(C)=O (stereo partly drawn) [Compound 32, (4R)-2-(2-Acetoxyphenyl)-3-(S-acetyl-3-mercaptopropanoyl)-4-thiazolidinecarboxylic acid]
Inhibition (%) of pressor response to angiotensin I ([1]; 5 min after oral dose): 40.2% | Inhibition (%) of pressor response to angiotensin I ([1]; 15 min after oral dose): 55.3% | Inhibition (%) of pressor response to angiotensin I ([1]; 25 min after oral dose): 70.2% | Inhibition (%) of pressor response to angiotensin I ([1]; 35 min after oral dose): 70.2% | Inhibition (%) of pressor response to angiotensin I ([1]; 45 min after oral dose): 61.1% | Inhibition (%) of pressor response to angiotensin I ([1]; 55 min after oral dose): 54.2% | Inhibition (%) of pressor response to angiotensin I ([1]; 65 min after oral dose): 55.3% | Inhibition (%) of pressor response to angiotensin I ([1]; 75 min after oral dose): 57.2% | Inhibition (%) of pressor response to angiotensin I ([1]; 85 min after oral dose): 48.2% | Inhibition (%) of pressor response to angiotensin I ([1]; 95 min after oral dose): 43.4% | Inhibition (%) of pressor response to angiotensin I ([1]; 105 min after oral dose): 27.3% | acute toxicity, LD [2]: > 500 mg/kg
